Like-named read-outs stand apart in the source and are kept apart here.
System: antibodies directed against NS3 (HCV) in sera
Type: binding, human
[1] = Sérum 1, NS3 positive, positivity threshold 2205
[2] = Sérum 2, NS3 positive, positivity threshold 3565
[3] = Sérum 3, NS3 positive, positivity threshold 4374
[4] = Sérum 4, NS3 positive, positivity threshold 2774
[5] = Sérum HCV-, positivity threshold 1271

Q: With AAKLSGLGIN [Peptide 11] as the sequence, how does the Fluorescence [1] read?
A: 2156

Q: What about the Fluorescence [2] of the same sequence?
A: 1557

Q: And the Fluorescence [3]?
A: 1458

Q: And the Fluorescence [4]?
A: 5283

Q: And the Fluorescence [5]?
A: 628

Q: Which results are given for AIPLEAIKGG [Peptide 4]?
A: Fluorescence [1]: 2899; Fluorescence [2]: 2988; Fluorescence [3]: 2497; Fluorescence [4]: 5598; Fluorescence [5]: 1011

Q: Which results are given for DVSVIPTSGD [Peptide 19]?
A: Fluorescence [1]: 9088; Fluorescence [2]: 4111; Fluorescence [3]: 2337; Fluorescence [4]: 4939; Fluorescence [5]: 567

Q: How did the Fluorescence [1] turn out when EAIKGGRHLL [Peptide 8] was run?
A: 2343

Q: And the Fluorescence [2]?
A: 1220

Q: And the Fluorescence [3]?
A: 1159

Q: What about the Fluorescence [4] of the same sequence?
A: 2587

Q: What about the Fluorescence [5] of the same sequence?
A: 525

Q: Which Fluorescence [1] does the source give for ELAAKLSGLG [Peptide 9] here?
A: 1582

Q: And the Fluorescence [2]?
A: 1142

Q: What about the Fluorescence [3] of the same sequence?
A: 1671

Q: What about the Fluorescence [4] of the same sequence?
A: 2418

Q: What about the Fluorescence [5] of the same sequence?
A: 508

Q: Which Fluorescence [1] does the source give for GKAIPLEAIK [Peptide 2] here?
A: 3590

Q: What about the Fluorescence [2] of the same sequence?
A: 8023

Q: What about the Fluorescence [3] of the same sequence?
A: 3495

Q: What about the Fluorescence [4] of the same sequence?
A: 7405

Q: What about the Fluorescence [5] of the same sequence?
A: 933

Q: GLDVSVIPTS [Peptide 17] was tested. Which Fluorescence [1] did it give?
A: 7976

Q: And the Fluorescence [2]?
A: 6423

Q: What about the Fluorescence [3] of the same sequence?
A: 2619

Q: And the Fluorescence [4]?
A: 7338

Q: And the Fluorescence [5]?
A: 754

Q: How did the Fluorescence [1] turn out when GLGINAVAYY [Peptide 16] was run?
A: 4201

Q: What about the Fluorescence [2] of the same sequence?
A: 5577

Q: And the Fluorescence [3]?
A: 1861

Q: What about the Fluorescence [4] of the same sequence?
A: 5602

Q: What about the Fluorescence [5] of the same sequence?
A: 931

Q: With IPLEAIKGGR [Peptide 5] as the sequence, how does the Fluorescence [1] read?
A: 2260

Q: And the Fluorescence [2]?
A: 2339

Q: And the Fluorescence [3]?
A: 1549

Q: And the Fluorescence [4]?
A: 4739

Q: And the Fluorescence [5]?
A: 945

Q: How did the Fluorescence [1] turn out when IPTSGDVVVV [Peptide 23] was run?
A: 2983

Q: And the Fluorescence [2]?
A: 3394

Q: What about the Fluorescence [3] of the same sequence?
A: 1818

Q: And the Fluorescence [4]?
A: 4505

Q: What about the Fluorescence [5] of the same sequence?
A: 904

Q: What does the source list for KAIPLEAIKG [Peptide 3]?
A: Fluorescence [1]: 2803; Fluorescence [2]: 3161; Fluorescence [3]: 1694; Fluorescence [4]: 5065; Fluorescence [5]: 924

Q: What does the source list for LAAKLSGLGI [Peptide 10]?
A: Fluorescence [1]: 3166; Fluorescence [2]: 2418; Fluorescence [3]: 1684; Fluorescence [4]: 9152; Fluorescence [5]: 551

Q: How did the Fluorescence [1] turn out when LDVSVIPTSG [Peptide 18] was run?
A: 29857

Q: What about the Fluorescence [2] of the same sequence?
A: 4113

Q: What about the Fluorescence [3] of the same sequence?
A: 4824

Q: What about the Fluorescence [4] of the same sequence?
A: 6209

Q: What about the Fluorescence [5] of the same sequence?
A: 667

Q: Which results are given for LEAIKGGRHL [Peptide 7]?
A: Fluorescence [1]: 1845; Fluorescence [2]: 1307; Fluorescence [3]: 1084; Fluorescence [4]: 3077; Fluorescence [5]: 574

Q: Which Fluorescence [1] does the source give for PLEAIKGGRH [Peptide 6] here?
A: 2789

Q: What about the Fluorescence [2] of the same sequence?
A: 3136

Q: And the Fluorescence [3]?
A: 2821

Q: And the Fluorescence [4]?
A: 5932

Q: And the Fluorescence [5]?
A: 957

Q: Which results are given for PTSGDYVVVA [Peptide 24]?
A: Fluorescence [1]: 1835; Fluorescence [2]: 1436; Fluorescence [3]: 1387; Fluorescence [4]: 3532; Fluorescence [5]: 573

Q: What does the source list for SGLGINAVAY [Peptide 15]?
A: Fluorescence [1]: 17944; Fluorescence [2]: 10603; Fluorescence [3]: 4786; Fluorescence [4]: 8262; Fluorescence [5]: 791

Q: SVIPTSGDVV [Peptide 21] was tested. Which Fluorescence [1] did it give?
A: 3553

Q: And the Fluorescence [2]?
A: 8321

Q: And the Fluorescence [3]?
A: 2244

Q: And the Fluorescence [4]?
A: 6853

Q: What about the Fluorescence [5] of the same sequence?
A: 913

Q: What does the source list for VIPTSGDVVV [Peptide 22]?
A: Fluorescence [1]: 1882; Fluorescence [2]: 1466; Fluorescence [3]: 1385; Fluorescence [4]: 2963; Fluorescence [5]: 648

Q: Which results are given for VSVIPTSGDV [Peptide 20]?
A: Fluorescence [1]: 7909; Fluorescence [2]: 4711; Fluorescence [3]: 2873; Fluorescence [4]: 11266; Fluorescence [5]: 718

Q: What does the source list for YGKAIPLEAI [Peptide 1]?
A: Fluorescence [1]: 3735; Fluorescence [2]: 3143; Fluorescence [3]: 2608; Fluorescence [4]: 6357; Fluorescence [5]: 917
